According to ChEMBL document CHEMBL4673364, “Synthesis and cytotoxic activity of new 7-acetoxy-12-amino-14-deoxy andrographolide analogues” (Bioorg Med Chem Lett, 2021):

Experiments:
[1] = system: HT-29; assay: Cytotoxicity against human HT-29 cells assessed as reduction in cell viability by SRB assay; format: functional, cell-based
[2] = Cytotoxicity against human P388 cells assessed as reduction in cell viability by SRB assay; format: functional, cell-based
[3] = Cytotoxicity against rat ASK cells assessed as reduction in cell viability by SRB assay; format: functional, cell-based
[4] = system: A549; assay: Cytotoxicity against human A549 cells assessed as reduction in cell viability by SRB assay; format: functional, cell-based
[5] = Cytotoxicity against human K055 cells assessed as reduction in cell viability by SRB assay; format: functional, cell-based
[6] = system: MCF7; assay: Cytotoxicity against human MCF7 cells assessed as reduction in cell viability by SRB assay; format: functional, cell-based
[7] = system: KB; assay: Cytotoxicity against human KB cells assessed as reduction in cell viability by SRB assay; format: functional, cell-based
[8] = Potency index, ratio of andrographolide IC50 to test compound IC50 for cytotoxicity against […] cells; format: functional
[9] = Cytotoxicity against human K213 cells assessed as reduction in cell viability by SRB assay; format: functional, cell-based
[10] = Potency index, ratio of andrographolide IC50 to test compound IC50 for cytotoxicity against human K055 cells; format: functional
[11] = system: KB; assay: Potency index, ratio of andrographolide IC50 to test compound IC50 for cytotoxicity against human KB cells; format: functional
[12] = Potency index, ratio of andrographolide IC50 to test compound IC50 for cytotoxicity against human K213 cells; format: functional
[13] = system: MCF7; assay: Potency index, ratio of andrographolide IC50 to test compound IC50 for cytotoxicity against human MCF7 cells; format: functional

**Q.** With `C=C1[C@@H](OC(C)=O)C[C@@H]2[C@](C)(CO[Si](C)(C)C(C)(C)C)[C@H](OC(C)=O)CC[C@@]2(C)[C@@H]1C[C@@H](Nc1ccccc1)C1=CCOC1=O` as the compound, how does the IC50 [1] read?
**A.** The IC50 was 4.05 µM.

**Q.** What about the IC50 [2] of the same compound?
**A.** Its IC50 is 4.4 µM.

**Q.** And the IC50 [3]?
**A.** The IC50 was 4.96 µM.

**Q.** What about the IC50 [4] of the same compound?
**A.** Its IC50 is 4.5 µM.

**Q.** What about the IC50 [5] of the same compound?
**A.** The IC50 was 4.43 µM.

**Q.** What about the IC50 [6] of the same compound?
**A.** The IC50 was 4.84 µM.

**Q.** What about the IC50 [7] of the same compound?
**A.** Its IC50 is 5.71 µM.

**Q.** And the “Ratio IC50” value [8]?
**A.** The value was 9.

**Q.** What about the IC50 [9] of the same compound?
**A.** Its IC50 is 5.7 µM.

**Q.** With `C=C1[C@@H](OC(C)=O)C[C@@H]2[C@](C)(CO[Si](C)(C)C(C)(C)C)[C@H](OC(C)=O)CC[C@@]2(C)[C@@H]1C/C=C1/C(=O)OC[C@H]1OC(C)=O` as the compound, how does the IC50 [1] read?
**A.** Its IC50 is 4.94 µM.

**Q.** And the “Ratio IC50” value [10]?
**A.** The value was 8.

**Q.** What about the IC50 [2] of the same compound?
**A.** The IC50 was 0.43 µM.

**Q.** What about the IC50 [3] of the same compound?
**A.** The IC50 was 4.11 µM.

**Q.** What about the “Ratio IC50” value [11] of the same compound?
**A.** Its value is 8.

**Q.** And the “Ratio IC50” value [12]?
**A.** Its value is 8.

**Q.** What about the IC50 [4] of the same compound?
**A.** The IC50 was 4.64 µM.

**Q.** What about the IC50 [5] of the same compound?
**A.** Its IC50 is 4.43 µM.

**Q.** What about the IC50 [6] of the same compound?
**A.** Its IC50 is 4.54 µM.

**Q.** What about the IC50 [7] of the same compound?
**A.** The IC50 was 5.02 µM.

**Q.** And the IC50 [9]?
**A.** Its IC50 is 4.81 µM.

**Q.** For `C=C1[C@@H](OC(C)=O)C[C@@H]2[C@](C)(CO[Si](C)(C)C(C)(C)C)[C@H](OC(C)=O)CC[C@@]2(C)[C@@H]1C[C@@H](Nc1ccc(F)cc1)C1=CCOC1=O`, which IC50 [1] is on record?
**A.** Its IC50 is 4.94 µM.

**Q.** And the IC50 [2]?
**A.** The IC50 was 4 µM.

**Q.** And the IC50 [3]?
**A.** The IC50 was 4.63 µM.

**Q.** What about the IC50 [4] of the same compound?
**A.** Its IC50 is 4.55 µM.

**Q.** And the IC50 [5]?
**A.** The IC50 was 5.43 µM.

**Q.** What about the IC50 [6] of the same compound?
**A.** The IC50 was 4.34 µM.

**Q.** And the IC50 [7]?
**A.** Its IC50 is 5.09 µM.

**Q.** And the IC50 [9]?
**A.** Its IC50 is 5.25 µM.

**Q.** What about the “Ratio IC50” value [13] of the same compound?
**A.** Its value is 7.

**Q.** Which results are given for `C=C1[C@@H](OC(C)=O)C[C@@H]2[C@](C)(CO[Si](C)(C)C(C)(C)C)[C@H](OC(C)=O)CC[C@@]2(C)[C@@H]1C[C@@H](Nc1ccc(Br)cc1)C1=CCOC1=O`?
**A.** IC50 [1]: 4.59 µM; IC50 [2]: 4.19 µM; IC50 [3]: 4.84 µM; IC50 [4]: 4.15 µM; IC50 [5]: 5.34 µM; IC50 [6]: 3.92 µM; IC50 [7]: 5.23 µM; IC50 [9]: 5.44 µM; Ratio IC50 [13]: 7

**Q.** Which IC50 [1] does the source give for `C=C1[C@@H](OC(C)=O)C[C@@H]2[C@](C)(CO[Si](C)(C)C(C)(C)C)[C@H](OC(C)=O)CC[C@@]2(C)[C@@H]1C[C@@H](Nc1cccc(F)c1)C1=CCOC1=O` here?
**A.** Its IC50 is 4.52 µM.

**Q.** And the IC50 [2]?
**A.** The IC50 was 2.81 µM.

**Q.** And the IC50 [3]?
**A.** Its IC50 is 3.7 µM.

**Q.** And the IC50 [4]?
**A.** Its IC50 is 4.06 µM.

**Q.** And the IC50 [5]?
**A.** Its IC50 is 5.41 µM.

**Q.** And the IC50 [6]?
**A.** The IC50 was 3.82 µM.

**Q.** And the IC50 [7]?
**A.** Its IC50 is 4.56 µM.

**Q.** And the IC50 [9]?
**A.** The IC50 was 5.28 µM.

**Q.** What about the “Ratio IC50” value [13] of the same compound?
**A.** Its value is 7.
